Data reported in the NIST ThermoML archive (doi:10.1016/j.jct.2018.02.018).
Numbers after ± are expanded uncertainties.

Columns and labels:
[1] = xn = mol fraction of the nth substance listed; conditions: 100 kPa, Liquid; for speed of sound: Frequency=3 MHz, Single path-length method; for mass density: Vibrating tube method
[2] = refractive index (Na D-line) (dimensionless); xn = mol fraction of the nth substance listed; conditions: 100 kPa, Liquid, Standard Abbe refractometry

CN(C)CCOCCO [2-(2-dimethylaminoethoxy)ethanol] + C[S+](C)[O-]
Conditions	mass density, [1] [kg/m3]	refractive index, [2]	speed of sound, [1] [m/s]
293.15 K, x2 = 0	954 ± 4	1.442 ± 0.006	1403.6 ± 2.4
293.15 K, x2 = 0.0984	962 ± 4	1.444 ± 0.006	1410.5 ± 2.3
293.15 K, x2 = 0.2001	971 ± 4	1.447 ± 0.006	1417.2 ± 2.2
293.15 K, x2 = 0.2995	981 ± 4	1.449 ± 0.006	1423.8 ± 2.1
293.15 K, x2 = 0.4021	992 ± 4	1.452 ± 0.006	1431 ± 2
293.15 K, x2 = 0.4992	1003 ± 4	1.455 ± 0.006	1439.1 ± 1.9
293.15 K, x2 = 0.6003	1017 ± 4	1.458 ± 0.006	1448.2 ± 1.8
293.15 K, x2 = 0.7006	1033 ± 4	1.462 ± 0.006	1458.4 ± 1.7
293.15 K, x2 = 0.795	1051 ± 4	1.467 ± 0.006	1470.1 ± 1.6
293.15 K, x2 = 0.8997	1074 ± 4	1.472 ± 0.006	1485.1 ± 1.5
293.15 K, x2 = 0.9505	1087 ± 4	1.476 ± 0.006	1494.1 ± 1.5
303.15 K, x2 = 0	946 ± 4	1.438 ± 0.006	1369.9 ± 2.4
303.15 K, x2 = 0.0984	954 ± 4	1.44 ± 0.006	1377.3 ± 2.3
303.15 K, x2 = 0.2001	963 ± 4	1.443 ± 0.006	1384 ± 2.2
303.15 K, x2 = 0.2995	972 ± 4	1.445 ± 0.006	1390.2 ± 2.1
303.15 K, x2 = 0.4021	983 ± 4	1.448 ± 0.006	1397.7 ± 2
303.15 K, x2 = 0.4992	995 ± 4	1.451 ± 0.006	1405.5 ± 1.9
303.15 K, x2 = 0.6003	1008 ± 4	1.454 ± 0.006	1414.5 ± 1.8
303.15 K, x2 = 0.7006	1024 ± 4	1.458 ± 0.006	1425.1 ± 1.7
303.15 K, x2 = 0.795	1041 ± 4	1.462 ± 0.006	1436.6 ± 1.6
303.15 K, x2 = 0.8997	1064 ± 4	1.468 ± 0.006	1451.1 ± 1.5
303.15 K, x2 = 0.9505	1077 ± 4	1.471 ± 0.006	1460.6 ± 1.5
313.15 K, x2 = 0	938 ± 4	1.435 ± 0.006	1336.8 ± 2.4
313.15 K, x2 = 0.0984	946 ± 4	1.437 ± 0.006	1344.1 ± 2.3
313.15 K, x2 = 0.2001	954 ± 4	1.439 ± 0.006	1350.8 ± 2.2
313.15 K, x2 = 0.2995	964 ± 4	1.441 ± 0.006	1357.1 ± 2.1
313.15 K, x2 = 0.4021	975 ± 4	1.444 ± 0.006	1364.6 ± 2
313.15 K, x2 = 0.4992	986 ± 4	1.447 ± 0.006	1372.4 ± 1.9
313.15 K, x2 = 0.6003	999 ± 4	1.45 ± 0.006	1381.3 ± 1.8
313.15 K, x2 = 0.7006	1015 ± 4	1.454 ± 0.006	1391.4 ± 1.7
313.15 K, x2 = 0.795	1032 ± 4	1.458 ± 0.006	1403.2 ± 1.6
313.15 K, x2 = 0.8997	1054 ± 4	1.464 ± 0.006	1417.6 ± 1.5
313.15 K, x2 = 0.9505	1067 ± 4	1.467 ± 0.006	1427 ± 1.5
323.15 K, x2 = 0	930 ± 4	1.431 ± 0.006	1303.9 ± 2.4
323.15 K, x2 = 0.0984	937 ± 4	1.433 ± 0.006	1311.2 ± 2.3
323.15 K, x2 = 0.2001	946 ± 4	1.435 ± 0.006	1318 ± 2.2
323.15 K, x2 = 0.2995	955 ± 4	1.437 ± 0.006	1324.2 ± 2.1
323.15 K, x2 = 0.4021	966 ± 4	1.439 ± 0.006	1331.8 ± 2
323.15 K, x2 = 0.4992	977 ± 4	1.442 ± 0.006	1339.5 ± 1.9
323.15 K, x2 = 0.6003	991 ± 4	1.446 ± 0.006	1348.4 ± 1.8
323.15 K, x2 = 0.7006	1006 ± 4	1.45 ± 0.006	1358.4 ± 1.7
323.15 K, x2 = 0.795	1023 ± 4	1.454 ± 0.006	1370.1 ± 1.6
323.15 K, x2 = 0.8997	1045 ± 4	1.459 ± 0.006	1384.4 ± 1.5
323.15 K, x2 = 0.9505	1057 ± 4	1.461 ± 0.006	1393.6 ± 1.5

NCCO [2-aminoethan-1-ol] + C[S+](C)[O-]
Conditions	mass density, [1] [kg/m3]	refractive index, [2]	speed of sound, [1] [m/s]
293.15 K, x2 = 0	1016 ± 4	1.455 ± 0.006	1734.2 ± 1.7
293.15 K, x2 = 0.1026	1026 ± 4	1.457 ± 0.006	1701.8 ± 1.7
293.15 K, x2 = 0.2008	1035 ± 4	1.46 ± 0.006	1672.3 ± 1.6
293.15 K, x2 = 0.2981	1043 ± 4	1.462 ± 0.006	1645.9 ± 1.6
293.15 K, x2 = 0.3966	1051 ± 4	1.465 ± 0.006	1619.8 ± 1.6
293.15 K, x2 = 0.4933	1059 ± 4	1.467 ± 0.006	1595.4 ± 1.6
293.15 K, x2 = 0.6021	1068 ± 4	1.469 ± 0.006	1571.2 ± 1.5
293.15 K, x2 = 0.6969	1076 ± 4	1.472 ± 0.006	1550.6 ± 1.5
293.15 K, x2 = 0.7998	1083 ± 4	1.474 ± 0.006	1533.3 ± 1.5
293.15 K, x2 = 0.9005	1092 ± 4	1.476 ± 0.006	1517.8 ± 1.5
303.15 K, x2 = 0	1008 ± 4	1.451 ± 0.006	1702.2 ± 1.7
303.15 K, x2 = 0.1026	1017 ± 4	1.454 ± 0.006	1669.2 ± 1.7
303.15 K, x2 = 0.2008	1026 ± 4	1.455 ± 0.006	1639.1 ± 1.6
303.15 K, x2 = 0.2981	1034 ± 4	1.458 ± 0.006	1611.9 ± 1.6
303.15 K, x2 = 0.3966	1042 ± 4	1.46 ± 0.006	1585.5 ± 1.6
303.15 K, x2 = 0.4933	1050 ± 4	1.463 ± 0.006	1561.2 ± 1.6
303.15 K, x2 = 0.6021	1058 ± 4	1.465 ± 0.006	1537 ± 1.5
303.15 K, x2 = 0.6969	1066 ± 4	1.467 ± 0.006	1516.6 ± 1.5
303.15 K, x2 = 0.7998	1074 ± 4	1.469 ± 0.006	1499 ± 1.5
303.15 K, x2 = 0.9005	1082 ± 4	1.472 ± 0.006	1484 ± 1.5
313.15 K, x2 = 0	1000 ± 4	1.447 ± 0.006	1669.4 ± 1.7
313.15 K, x2 = 0.1026	1009 ± 4	1.45 ± 0.006	1636.3 ± 1.7
313.15 K, x2 = 0.2008	1017 ± 4	1.452 ± 0.006	1605.3 ± 1.7
313.15 K, x2 = 0.2981	1025 ± 4	1.454 ± 0.006	1578.3 ± 1.6
313.15 K, x2 = 0.3966	1033 ± 4	1.456 ± 0.006	1551.7 ± 1.6
313.15 K, x2 = 0.4933	1041 ± 4	1.458 ± 0.006	1527.2 ± 1.6
313.15 K, x2 = 0.6021	1049 ± 4	1.461 ± 0.006	1503 ± 1.5
313.15 K, x2 = 0.6969	1057 ± 4	1.463 ± 0.006	1483.1 ± 1.5
313.15 K, x2 = 0.7998	1064 ± 4	1.465 ± 0.006	1465.2 ± 1.5
313.15 K, x2 = 0.9005	1072 ± 4	1.468 ± 0.006	1449.9 ± 1.5
323.15 K, x2 = 0	992 ± 4	1.443 ± 0.006	1637.3 ± 1.7
323.15 K, x2 = 0.1026	1001 ± 4	1.446 ± 0.006	1603.2 ± 1.7
323.15 K, x2 = 0.2008	1009 ± 4	1.449 ± 0.006	1571.9 ± 1.7
323.15 K, x2 = 0.2981	1017 ± 4	1.45 ± 0.006	1544.7 ± 1.6
323.15 K, x2 = 0.3966	1024 ± 4	1.452 ± 0.006	1517.9 ± 1.6
323.15 K, x2 = 0.4933	1031 ± 4	1.454 ± 0.006	1493.4 ± 1.6
323.15 K, x2 = 0.6021	1039 ± 4	1.457 ± 0.006	1469.3 ± 1.5
323.15 K, x2 = 0.6969	1047 ± 4	1.459 ± 0.006	1449.4 ± 1.5
323.15 K, x2 = 0.7998	1054 ± 4	1.461 ± 0.006	1431.7 ± 1.5
323.15 K, x2 = 0.9005	1062 ± 4	1.463 ± 0.006	1416.4 ± 1.5
